One molecule from patent US20040043980A1, “Stable compositions of oxapenem-3-carboxylic acids by co-lyophilisation with pharmaceutical carriers” (priority 2000, published 2004) can be followed below.

Common to all, as to conditions: 42 days
Data set [1] in a line: Shelf stability: content determined by UV spectroscopy in water at 262 nm. The format is physicochemical. Also on record: unit not given here. As to the method: (§1) Several samples in glass ampoules were kept without and over drying agents for 42 days in the dark at room temperature. The content of (5R,6R,1′R)-3-(4-amino-1,1-dimethylbutyl)-6-(1′-hydroxyethyl)-7-oxo-4-1-azabicyclo[3.2.0]hept-2-ene-2-carboxylic acid was determined by UV spectroscopy in water at λmax=262 nm (ε=5000) and by plate bioassay. The appearance of the lyophilized powder and the solubility behaviour in water were also recorded.

Data set [2] is described as follows: Shelf stability: appearance of the lyophilized powder. Type of data set: physicochemical. Here is the method:
as §1

The test system of data set [3] is Escherichia coli. The experiment in a line: Shelf stability: content by plate bioassay. Type of data set: cell-based. Also on record: unit not given here. Here is the method:
[…] The content of (5R,6R,1′R)-3-(4-amino-1,1-dimethylbutyl)-6-(1′-hydroxyethyl)-7-oxo-4-1-azabicyclo[3.2.0]hept-2-ene-2-carboxylic acid was determined by UV spectroscopy in water at λmax=262 nm (ε=5000) and by plate bioassay. The appearance of the lyophilized powder and the solubility behaviour in water were also recorded.
The plate bioassays were carried out in sterile polystyrene dishes of 8.5 cm diameter with 10 ml of sterile Difco Nutrient Agar using Escherichia coli (inocculum ca. 10 000 cells). The inhibition diameters were compared with those obtained with 30, 25, 20, 15, 10 and 5 μg of pure title compound on a separate dish and the amount of active material calculated.

The mark [4] stands for this setting: R.T., vacuum, drying agent P2O5.

Turning to `C[C@@H](O)[C@H]1C(=O)N2C(C(=O)O)=C(C(C)(C)CCCN)O[C@H]12` [neat, (5R,6R,1′R)-3-(4-amino-1,1-dimethylbutyl)-6-(1′-hydroxyethyl)-7-oxo-4-oxa-1-azabicyclo[3.2.0]hept-2-ene-2-carboxylic acid], the “content by UV method” value in data set [1] (R.T., drying agent SiO2) is 82; in data set [1] (R.T., drying agent none), 67; in data set [1] (setting [4]), 76; in data set [1] (−80° C., drying agent none), 100. In addition, the appearance result in data set [2] (R.T., drying agent SiO2) is reported as “yellow”; in data set [2] (R.T., drying agent none), “yellow”; in data set [2] (setting [4]) it was “yellow”; in data set [2] (−80° C., drying agent none) it was “white”. Further, the content by bioassay came out at 66 in data set [3] (R.T., drying agent SiO2); 40 in data set [3] (R.T., drying agent none); 83 in data set [3] (setting [4]); 100 in data set [3] (−80° C., drying agent none).
